Peptide text beside a SMILES is read from it.
How the values were obtained:
[1] = Toxicity against human erythrocytes assessed as lysis at 300 uM; format: cell-based; conditions: erythrocyte
[2] = Toxicity against human erythrocytes assessed as lysis at 600 uM; format: cell-based; conditions: erythrocyte
Plasmodium falciparum = experiment: Growth inhibition of Plasmodium falciparum 3D7 in erythrocytes by [3H]hypoxanthine uptake; format: functional, organism-based

**Q.** Which Activity [1] does the source give for `CC(C)CC1OC(=O)CCNC(=O)[C@H](Cc2ccccc2)N(C)C(=O)[C@H](C(C)C)N(C)C(=O)[C@H](Cc2ccccc2)NC(=O)[C@@H]2CCCN2C1=O` (stereo partly specified) [ISARIDINE A] (HELM PEPTIDE1{F.[meV].[meF].[bAla].[CC(C)CC(O[*:1])C(=O)[*:2]].P}$PEPTIDE1,PEPTIDE1,1:R1-6:R2$$$V2.0) here?
**A.** Non-toxic

**Q.** And the Activity [2]?
**A.** Non-toxic

**Q.** What about the IC50 (Plasmodium falciparum) of the same compound?
**A.** 230 µM

**Q.** For `CCCCCCC1CC(=O)NCC(=O)N[C@@H](C(C)C)C(=O)N[C@H](CC(C)C)C(=O)N[C@@H](C)C(=O)N[C@@H](C(C)C)C(=O)O1` (stereo partly specified) [ISARIIN B], which Activity [1] is on record?
**A.** Non-toxic

**Q.** What about the Activity [2] of the same compound?
**A.** Non-toxic

**Q.** What about the IC50 (Plasmodium falciparum) of the same compound?
**A.** 118 µM
